These results are taken from article PMC12435366, “Maleic anhydride derived diphosphines: adaptable chelators for receptor-targeted ^99mTc, ^64Cu and ^188Re radiotracers” (Chemical Science, 2025).

Molecules are shown by their SMILES.

This data set deals with DU145-PSMA+ prostate cancer xenografts. It is filed as in vivo, mice. Particulars: for tumour delineation in SPECT/CT scans: male SCID/Beige mice bearing DU145-PSMA+ xenografts, SPECT 15 to 120 min post-injection; for clearance from blood pool (SPECT/CT): mouse, in vivo. The procedure:
The biodistribution of [^99mTcO2(DP^An-PSMAt)2]^+ and [^99mTcO2(DP^MEP-PSMAt)2]^+ was studied using SPECT/CT imaging and ex vivo biodistribution methods. In these studies, [^99mTcO2(DP^An-PSMAt)2]^+ and [^99mTcO2(DP^MEP-PSMAt)2]^+ were used directly from kit-based formulations, without further purification, mimicking procedures used in clinical radiopharmacies and nuclear medicine departments. Mice were injected with [^99mTcO2(DP^An-PSMAt)2]^+ or [^99mTcO2(DP^MEP-PSMAt)2]^+ (4–5 MBq), containing 3 μg (2.6 nmol) of DP^An-PSMAt or 3.5 μg (2.6 nmol) of (DP^MEP-PSMAt) via the tail-vein, and culled 2 h post-injection, followed by dissection, organ/tissue weighing and counting.
SPECT/CT studies were undertaken in male SCID/Beige mice bearing DU145-PSMA+ prostate cancer xenografts administered [^99mTcO2(DP^An-PSMAt)2]^+ and [^99mTcO2(DP^MEP-PSMAt)2]^+. SPECT images were acquired from 15 to 120 min post-injection of radiotracer. […]
4.10 In vivo imaging and biodistribution (DU145-PSMA+ and LNCaP)
Preparation of tumour-bearing mice: All animal experiments were ethically reviewed by an Animal Welfare & Ethical Review Board at either King’s College London or Bart’s Cancer Institute and carried out in accordance with the Animals (Scientific Procedures) Act 1986 UK Home Office regulations governing animal experimentation. Subcutaneous prostate cancer xenografts were produced in SCID/beige mice (male, 7–12 weeks old) by injecting 4 × 10^6 DU145-PSMA+ or DU145 cells suspended in PBS (100 μL) on the right shoulder. Imaging and biodistribution studies were performed once a tumour had reached 5–10 mm in diameter (3–4 weeks after injection). Subcutaneous LNCaP prostate cancer xenografts were produced in athymic nude (Crl:NU(NCr)-Foxn1nu) mice (male, 6–7 weeks old) by injecting 5 × 10^6 LNCaP cells suspended in PBS:matrigel (1:1, 200 μL) on the right flank.
Biodistribution studies using 99mTc radiotracers were performed once a tumour had reached 150– 300 mm3 in volume (2–7 weeks after injection).
SCID/beige mice bearing DU145-PSMA+ prostate cancer tumour xenografts
SPECT/CT scanning and biodistribution studies: The 99mTc radiotracers (3.9–4.5 MBq, 3 mice per group, containing DPAn-PSMAt = 3.0 µg or DPMEP-PSMAt = 3.5 µg) were administered via tail vein injection under isoflurane anaesthesia. […]
in helical scanning mode). At 2 h post-injection, the animals were euthanized by cervical dislocation, organs/tissues harvested and weighed, and radioactivity counted using a gamma […]
ii. […] After scanning, the organs/tissues were harvested, weighed and radioactivity counted […]
Urine was collected and directly analysed by reverse-phase radio-HPLC (method 2). Data were analysed in GraphPad Prism 9 (version 9.1.1) and expressed as mean ± standard deviation (SD). […]

Turning to `COCCOc1ccc(P(/C(C(=O)O)=C(/C(=O)NCCOCCOCCOCCOCCC(=O)NCCCC[C@H](NC(=O)N[C@@H](CCC(=O)O)C(=O)O)C(=O)O)P(c2ccc(OCCOC)cc2)c2ccc(OCCOC)cc2)c2ccc(OCCOC)cc2)cc1` [[^99mTcO2(DP^MEP-PSMAt)2]^+, metal not drawn], the “tumour delineation in SPECT/CT scans” value is “could be delineated” and the “clearance from blood pool (SPECT/CT)” value is listed as “rapidly cleared from the blood pool via a renal pathway”.

`COc1ccc(P(/C(C(=O)O)=C(/C(=O)NCCOCCOCCOCCOCCC(=O)NCCCC[C@H](NC(=O)N[C@@H](CCC(=O)O)C(=O)O)C(=O)O)P(c2ccc(OC)cc2)c2ccc(OC)cc2)c2ccc(OC)cc2)cc1` [[^99mTcO2(DP^An-PSMAt)2]^+, metal not drawn]: the “tumour delineation in SPECT/CT scans” value is “could be delineated” and the “clearance from blood pool (SPECT/CT)” value is recorded as “rapidly cleared from the blood pool via a renal pathway”.
